# Patent publication US20070077583A1, “Alpha enolase-directed diagnostics and therapeutics for cancer and chemotherapeutic drug resistance” (Aurelium BioPharma, Inc., priority 2005, published 2007)
# Entries after “also recorded” stand apart in the source; their conditions may differ. Read-outs that look alike come from different tables or passages of the source.
# What was measured:
# MCF-7 cells [1] = assay: Clonogenic assay, MCF-7 cells; assay type: cell-based, human; settings: MCF-7 cells
# Procedure: Utilizing a clonogenic assay generated additional information concerning cell viability after drug-resistant cells were exposed to siRNA and chemotherapeutics. […] Taxol or Vincristine was added at IC10 or IC50 concentrations determined from MTT experiments for MCF-7 cells. […] The cells were further incubated for an additional 7 days. At the end of the incubation, the cells were stained with addition of a 0.5% Methylene Blue solution in 50% ethanol for 15 min. at RT. The staining solution was then removed and plates were dried overnight. The plates were scanned and the stained colonies were solubilized in 0.1% SDS. The absorbance of the resulting solution was determined by spectrophotometry at 660 nm.
# SKOV3 cells = assay: Cytotoxicity in α-enolase siRNA transfected SKOV3 cells; settings: data not shown
# SW-480 cells = assay: cells; assay type: cell-based, human; settings: SW-480 cells; for EC50: Homo sapiens, SW480
# Procedure: The colorectal adenocarcinoma cell line SW-480 was treated with α-enolase-directed siRNA using the procedures described above.
# CaOV3 cells = assay: MTT cytotoxicity assay, CaOV3 cells transfected with α-enolase RNAi; assay type: cell-based, human; settings: for EC50: Homo sapiens, 72 hours post transfection
# Excerpt: These observations were expanded by targeting α-enolase in the ovarian cancer cell line, CaOV3.
# PC-3 cells = assay: MTT cytotoxicity assay, PC-3 cells transfected with α-enolase siRNA; assay type: cell-based; settings: for EC50: Homo sapiens
# H460 cells = assay: MTT cytotoxicity assay, H460 cells transfected with α-enolase siRNA; assay type: cell-based, human; settings: for EC50: Homo sapiens
# Procedure: To establish the effectiveness of α-enolase silencing on other cancer cell types, H460 non-small cell lung cancer cells were challenged with a chemotherapeutic drug, MTT cytotoxicity assays were carried out and survival curves plotted as shown in FIG. 17.
# MDA-435 cells = assay: cells; assay type: cell-based, human; settings: MDA-435 cells; for EC50: Homo sapiens, MDA435
# Procedure: Similar tests utilizing α-enolase siRNA were performed on MDA-435 breast adenocarcinoma cells. Chemosensitivity to various drugs was determined for the MDA-435 cells as described above.
# A549 cells [2] = assay: MTT cytotoxicity assay, A549 cells transfected with α-enolase siRNA; settings: for chemosensitivity of α-enolase-silenced cells (words): A549 cells; for EC50: Homo sapiens
# Procedure: Small interfering RNA transfected cells were seeded in triplicate into 96-well plates at 5×10^3 cells/well 48 hrs post-transfection. The cells were incubated for an additional 16-24 hrs before they were exposed to increasing concentrations of cytotoxic drugs. […] Appropriate dilutions were made in the respective media for each cell line. Following addition of drugs, incubation was continued for an additional 72 hrs. Twenty-five ml of MTT dye (5 mg/ml) were added into each well and the plate was further incubated at 37° C. for 4 hrs. The dye was solubilized with 10% Triton X-100, 0.01 N HCl and further incubated at 37° C. in the dark for 30 min. Cell viability was determined by measure of absorption at 570 nm in a Wallac multiwell plate reader (PerkinElmer, Inc., Boston, Mass.). The averages of triplicate wells were plotted using the Prism software (GraphPad Software, Inc., San Diego, Calif.).
# To investigate if α-enolase is broadly involved in mediating drug resistance to microtubule targeting agents, non-small cell lung cancer cell lines A549 and H460, respectively, were transfected with α-enolase siRNA and enolase expression and viability were assessed.
# A549 cells [3] = assay: Clonogenic assay, A549 cells; assay type: cell-based, human; settings: A549 cells vs control vectors
# MCF-7 cells [4] = assay: MTT cytotoxicity assay, MCF-7 cells transfected with α-enolase siRNA; assay type: cell-based, human; settings: MCF-7 cells; for EC50 / IC50: Homo sapiens, MCF7; for IC50 / IC10: from MTT experiments; for EC50 lower in α-enolase-depleted cells vs control siRNA treated cells: on average
# Procedure: For a typical siRNA transfection, 1 nmole of the annealed siRNA duplex was mixed with 1.4 ml of Opti-MEM reagent (Invitrogen). In another tube, […] of Oligofectamine reagent (Invitrogen, Carlsbad, Calif.) is mixed with […] of Opti-MEM. The two solutions are combined and mixed gently by inversion and incubated for 20 min. at RT. The resulting solution is added to the cultured cells drop by drop in a 10 cm dish (cells are approximately 40-50% confluent). The next day the transfected cells were trypsinized and seeded in 6 or 96-well plates and further incubated for the indicated amount of time (assay dependent) before further analysis.
# To evaluate the effect of α-enolase depletion on the chemosensitivity of cells to cytotoxic agents, MTT assays were performed in breast adenocarcinoma MCF-7 cells transfected with α-enolase specific siRNAs. […] The predicted EC50 values (the effective dose of a compound responsible for a positive effect half-way between baseline and maximum net impact) for the α-enolase-depleted cells are shown in Table 3. Similarly, results using other chemotherapeutic drugs are also shown in the table indicating the sensitivity of breast cancer tissue to α-enolase depletion.
# [5] = control, read-out: Control (EC50)
# [6] = α-enolase specific siRNA, read-out: α-Enolase (EC50)
# [7] = Caov-3, control, read-out: Control (EC50)
# [8] = Caov-3, α-enolase specific RNAi, read-out: α-Enolase (EC50)
# [9] = NCI-H460, control, read-out: Control (EC50)
# [10] = NCI-H460, α-enolase specific siRNA, read-out: α-Enolase (EC50)
# [11] = Eno-1 siRNA, read-out: Eno-1 (EC50)
# [12] = Eno-1 stealth siRNA, read-out: Eno-1 ST (EC50)
# [13] = control siRNA, read-out: Control (EC50)
# [14] = mock transfection, read-out: Mock (EC50)
# [15] = A549, read-out: α-Enolase (EC50)
# [16] = control siRNA, 72 hrs drug, read-out: Control (EC50)
Structure (SMILES),cytotoxic effect in α-enolase-depleted cells (SKOV3 cells),EC50 (SW-480 cells; [5]) [nM],EC50 (SW-480 cells; [6]) [nM],decrease of chemotherapeutic drug resistance by α-enolase-directed siRNA vs mock siRNA (CaOV3 cells) [fold],EC50 (CaOV3 cells; [7]) [nM],EC50 (CaOV3 cells; [8]) [nM],EC50 (PC-3 cells; [5]) [nM],EC50 (PC-3 cells; [6]) [nM],viability of α-enolase-silenced cells under drug treatment vs control cells (H460 cells),EC50 (H460 cells; [9]) [nM],EC50 (H460 cells; [10]) [nM],EC50 (MDA-435 cells; [11]) [nM],EC50 (MDA-435 cells; [12]) [nM],EC50 (MDA-435 cells; [13]) [nM],EC50 (MDA-435 cells; [14]) [nM],"EC50 (A549 cells [2]; A549, read-out: Control (EC50)) [nM]",EC50 (A549 cells [2]; [15]) [nM],sensitivity of α-enolase siRNA cells in clonogenic assay (A549 cells [3]),EC50 (MCF-7 cells [4]; [16]) [nM],IC50 (MCF-7 cells [4]) [nM],other results
CC(=O)O[C@H]1C(=O)[C@@]2(C)[C@H]([C@H](OC(=O)c3ccccc3)[C@]3(O)C[C@H](OC(=O)[C@H](O)[C@@H](NC(=O)c4ccccc4)c4ccccc4)C(C)=C1C3(C)C)[C@]1(OC(C)=O)CO[C@@H]1C[C@@H]2O [Taxol],enhanced cytotoxic effect,0.276,0.033,24.6,2.69,0.11,0.199,0.0206,greatest decreases in viability,2.24,0.602,0.334,0.149,1.1,0.445,5.94,3.16,more sensitive,78.4,100,cytotoxicity in α-enolase depleted cells in clonogenic assay (MCF-7 cells [1]): enhanced taxol cytotoxicity; enhancement in sensitivity with α-enolase silencing (PC-3 cells): 10 fold; sensitivity of α-enolase-silenced cells (MDA-435 cells): Increases in sensitivity; chemosensitivity of α-enolase-silenced cells (words) (A549 cells [2]): enhanced chemosensitivity; also recorded: significant shifts in their chemosensitivities; EC50 (MCF-7 cells [4]; [6]): 7.16 nM; sensitivity of α-enolase silenced cells (MCF-7 cells [4]): substantial increase in their sensitivity; IC10 (MCF-7 cells [4]): 1 nM; EC50 lower in α-enolase-depleted cells vs control siRNA treated cells (MCF-7 cells [4]): 10 fold
CC[C@]1(O)C[C@H]2CN(CCc3c([nH]c4ccccc34)[C@@](C(=O)OC)(c3cc4c(cc3OC)N(C=O)[C@H]3[C@@](O)(C(=O)OC)[C@H](OC(C)=O)[C@]5(CC)C=CCN6CC[C@]43[C@@H]65)C2)C1 [Vincristine],enhanced cytotoxic effect,45.8,0.221,6,0.084,0.0108,3400,1690,decreased the viability,4.96,2.03,0.375,0.324,0.246,0.667,83.3,20,more sensitive,163000,0.25,"more sensitive, enolase-depleted vs mock transfected cells (SW-480 cells): approximately 210 times; chemosensitivity of α-enolase-depleted cells (words) (SW-480 cells; listed as vincristin): greater chemosensitivity; chemosensitivity of α-enolase-depleted cells (words) (SW-480 cells; listed as vincristine): greatly enhanced chemosensitivity; chemosensitivity of α-enolase-silenced cells (words) (A549 cells [2]; listed as vincristin): significant shifts in their chemosensitivities; chemosensitivity of α-enolase-silenced cells (words) (A549 cells [2]; listed as vincristine): enhanced chemosensitivity; EC50 (MCF-7 cells [4]; [6]): 12600 nM; sensitivity of α-enolase silenced cells (MCF-7 cells [4]): substantial increase in their sensitivity; IC10 (MCF-7 cells [4]): 0.005 nM; EC50 lower in α-enolase-depleted cells vs control siRNA treated cells (MCF-7 cells [4]): 12 fold"
